Source: patent US4013449A, “Method of controlling weed growth in a paddy field” (priority 1974, dated 1977)
Entries after “also recorded” stand apart in the source; their conditions may differ.

Columns and labels:
rice plant [1] = experiment: Reference Experiment 2: foliage treatment, phytotoxicity of rice plant; type: in vivo; details: DCPA 1000 ppm alone
Source text: In unglazed pots having diameters of 9 cm, diluvium clay loam was filled and rice seeds and barnyard grass seeds were sowed and grown. […] The phytotoxicity of rice and herbicidal effect on barnyard grass were observed 20 days from the treatment.

[2] = Experiment 3: decomposition of DCPA in soil; type: physicochemical; details: Alluvium loam soil, DCPA 100 g/are; for inhibition of the decomposition of DCPA in soil: NAC 3.3 g/are
Procedure: The method of this invention is treatment in flooded water. Accordingly, transfer of the active ingredients into the soil of the paddy field is unavoidable. The decompositions of the active ingredients in the paddy soil were measured.
Soil: Alluvium loam soil
The active ingredients were uniformly mixed in a 5 mm
Analysis: The concentrations of DCPA were
measured by gas chromatography in […]

barnyard grass [3] = experiment: Example 1: usual transplanting culture, paddy field, poured into flooded water, herbicidal effect on barnyard grass; type: in vivo, Echinochloa crusgalli; details: for Herbicidal effect, barnyard grass: 3 weeks; for herbicidal effect to barnyard grass and broadleaf weeds: poured into flooded water; as to Herbicidal effect, barnyard grass: key: 5: complete control; 4: excellent effect; 3: large effect; 2: fair effect; 1: small effect; 0: no effect
Source text: (§1) DCPA and β-NAC were separately crushed into fine powders by a jetmizer. The crushed DCPA and β-NAC were mixed in ratios of 80 : 1; 40 : 1; 20 : 1 and 10 : 1 together with a dispersing agent (Sorpol 5039 manufactured by Toho Chemical Co. and Rapizol BB-74 manufactured by Nippon Fat & Oil Co.) to form a wettable powder. The compositions were applied under the following conditions in a paddy field of Ishigakijima, Okinawa-Ken, Japan.
(§2) 1. Plot size: Two replications, each 1 m^2 per division
(§3) 2. Culturing method: Usual transplanting
(§4) 3. Rice variety: Taichu 65
(§5) 5 - 6 leaf stage of rice plants at the transplanting;
(§6) a. Treating time Mar. 16, 1974 (17 days after transplanting)
(§7) 2 - 2.5 leaf stage of barnyard grass
(§8) Each composition was diluted with 50 cc of water and the solution was poured in the rows by using a watering pot
(§9) Barnyard grass (Echinochloa crusgalli);
(§10) After 3 weeks from the treatment, the herbicidal effect and the phytotoxicity were observed.

broadleaf weeds [4] = experiment: Example 1: usual transplanting culture, paddy field, poured into flooded water, herbicidal effect on broadleaf weeds; type: in vivo; details: 3 weeks; also: key: 5: complete control; 4: excellent effect; 3: large effect; 2: fair effect; 1: small effect; 0: no effect
Source text: as §1, §2, §3, §4, §5, §6, §7, §8
Monochoria vaginalis (Burm fil) Presl;
Dopatrium junceum (Roxb) Hamilt;
Rotala indica (Willd) koehne;
Eleocharis acicularis Roem et Schult;
as §10

rice plant [5] = experiment: Example 1: usual transplanting culture, paddy field, phytotoxicity to rice plant; type: in vivo, Taichu 65; design: key: X: killed; ++++: serious damage; +++: high damage; ++: middle damage; +: low damage; ±: quite low damage; -: no damage; details: 3 weeks
Source text: as §1, §2, §3, §4, §5, §6, §7, §8, §10

barnyard grass [6] = experiment: Example 2: mechanical transplanting using young seedlings, poured into flooded water, herbicidal effect on barnyard grass; type: in vivo, Echinochloa crusgalli; details: for Herbicidal Effect, BG: 20 days; as to Herbicidal Effect, BG: key: 5: complete control; 4: excellent effect; 3: large effect; 2: fair effect; 1: small effect; 0: no effect
Procedure: (§11) The tests were conducted by using the compositions of Example 1 in the paddy field of Ishigakijima, Okinawa-Ken, Japan.
(§12) 1. Plot size: Two replications each 1 m^2 per division.
(§13) 2. Culturing method: Mechanical transplanting using young seedlings
(§14) 3. Rice variety: Nihonbare
(§15) 4. Transplanting: Apr. 8, 1974
(§16) 2.3 - 3 leaf stage of rice at the transplanting;
(§17) 5. Depth of water: 3 - 5 cm
(§18) A. first treatment: Apr. 19, 1974
(§19) (16 days after transplanting)
as §7
(§20) B. second treatment: Apr. 23, 1974
(§21) (20 days after transplanting)
(§22) 3 - 3.5 leaf stage of barnyard grass.
(§23) Each composition was diluted with 50 cc of water and the solution was poured in the rows by using a watering pot.
as §9
(§24) After 20 days from the treatment (the first treatment and the second treatment), the herbicidal effects and the condition of the rice were observed.

broadleaf weeds [7] = experiment: Example 2: mechanical transplanting using young seedlings, poured into flooded water, herbicidal effect on broadleaf weeds; type: in vivo; details: 20 days; also: key: 5: complete control; 4: excellent effect; 3: large effect; 2: fair effect; 1: small effect; 0: no effect
Procedure: as §11, §12, §13, §14, §15, §16, §17, §18, §19, §7, §20, §21, §22, §23
Monochoria vaginalis (Burm fil) Presel;
Rotala indica (Willd) Koehne;
Scirpus juncoides Roxb; and
as §24

Insecticidal effect = details: in vivo
house fly = experiment: LD50 to house fly (Table 1); details: addition of piperinyl butoxide
larva of mosquito = experiment: LD50 to larva of mosquito (Table 1); details: read-out: LD50 to larva of mosquito
[8] = A: 2 - 2.5 leaf stage, DCPA 60 g/are, β-NAC none
[9] = B: 3 - 3.5 leaf stage, DCPA 60 g/are, β-NAC none
[10] = A: 2 - 2.5 leaf stage, DCPA none, β-NAC 4.0 g/are
[11] = B: 3 - 3.5 leaf stage, DCPA none, β-NAC 4.0 g/are

Question: With `CCC(=O)Nc1ccc(Cl)c(Cl)c1` [DCPA, 3,4-dichloropropionanilide, reference compound] as the compound, how does the “Phytotoxicity to rice plants” value (rice plant [1]) read?
Answer: The value was “not found”.

Question: What about the “minimum residues of DCPA in soil” value ([2]; α-NAC or β-NAC 3.3 g/are where combined, gas chromatography) of the same compound?
Answer: Its value is 4 days.

Question: What about the “Herbicidal effect, barnyard grass” value (barnyard grass [3]; DCPA 60 g/are, β-NAC none) of the same compound?
Answer: Its value is 0.

Question: What about the “herbicidal effect to barnyard grass and broadleaf weeds” value (barnyard grass [3]; DCPA 60 g/are) of the same compound?
Answer: Its value is “no herbicidal effect”.

Question: What about the “Herbicidal effect, broadleaf weeds” value (broadleaf weeds [4]; DCPA 60 g/are, β-NAC none) of the same compound?
Answer: The value was 0.

Question: And the “Phytotoxicity to rice plant” value (rice plant [5]; DCPA 60 g/are, β-NAC none)?
Answer: The value was “-”.

Question: What about the “Herbicidal Effect, BG” value (barnyard grass [6]; [8]) of the same compound?
Answer: Its value is 0.

Question: What about the “Herbicidal Effect, BG” value (barnyard grass [6]; [9]) of the same compound?
Answer: Its value is 0.

Question: What about the “herbicidal effect” value (barnyard grass [6]; DCPA 60 g/are, 2 - 2.5 and 3 - 3.5 leaf stage of barnyard grass) of the same compound?
Answer: The value was “no herbicidal effect was found”.

Question: And the “Herbicidal Effect, BLW” value (broadleaf weeds [7]; [8])?
Answer: The value was 0.

Question: What about the “Herbicidal Effect, BLW” value (broadleaf weeds [7]; [9]) of the same compound?
Answer: The value was 0.

Question: Which “inhibition of the decomposition of DCPA in soil” value [2] does the source give for `CNC(=O)Oc1cccc2ccccc12` [α-NAC, α-naphthyl-N-methyl carbamate] here?
Answer: The value was “inhibit the decomposition of DCPA”.

Question: With `CNC(=O)Oc1ccc2ccccc2c1` [β-NAC, β-naphthyl-N-methyl carbamate] as the compound, how does the insecticidal effect (Insecticidal effect) read?
Answer: Its insecticidal effect is “low insecticidal effect; also recorded: no insecticidal effect”.

Question: What about the “inhibition of the decomposition of DCPA in soil” value [2] of the same compound?
Answer: The value was “higher effect for inhibiting the decomposition of DCPA”.

Question: What about the “Herbicidal effect, barnyard grass” value (barnyard grass [3]; DCPA none, β-NAC 4.0 g/are) of the same compound?
Answer: Its value is 0.

Question: What about the “herbicidal effect to barnyard grass and broadleaf weeds” value (barnyard grass [3]; β-NAC 4 g/are) of the same compound?
Answer: Its value is “no herbicidal effect”.

Question: What about the “Herbicidal effect, broadleaf weeds” value (broadleaf weeds [4]; DCPA none, β-NAC 4.0 g/are) of the same compound?
Answer: The value was 0.

Question: What about the “Phytotoxicity to rice plant” value (rice plant [5]; DCPA none, β-NAC 4.0 g/are) of the same compound?
Answer: The value was “-”.

Question: And the “Herbicidal Effect, BG” value (barnyard grass [6]; [10])?
Answer: Its value is 0.

Question: And the “Herbicidal Effect, BG” value (barnyard grass [6]; [11])?
Answer: Its value is 0.

Question: What about the “Herbicidal Effect, BLW” value (broadleaf weeds [7]; [10]) of the same compound?
Answer: Its value is 0.

Question: What about the “Herbicidal Effect, BLW” value (broadleaf weeds [7]; [11]) of the same compound?
Answer: Its value is 0.

Question: What about the “LD50 to house fly” value (house fly) of the same compound?
Answer: Its value is 12.5 µg/g.

Question: What about the LC50 (larva of mosquito) of the same compound?
Answer: The LC50 was > 10 µg/mL.
